Article PMC7577153, “Identification of Small-Molecule Inhibitors Targeting Porphyromonas gingivalis Interspecies Adherence and Determination of Their In Vitro and In Vivo Efficacies” (Antimicrobial Agents and Chemotherapy, 2020)
Marks after values point to notes of the source that are not given here.

Columns and labels:
HL60 cells = details: HL60, positive control, 2 mM hydrogen peroxide, 4 h
Protocol: (§1) The mouse macrophage cell line J774A.1 was grown in Dulbecco’s modified Eagle medium (DMEM) (Thermo Fisher Scientific, Waltham, MA) supplemented with 4.5 g/ml glucose, 10% fetal bovine serum (FBS), and 100 U/ml penicillin-streptomycin (Sigma-Aldrich, St. Louis, MO). HL60 (ATCC CCL240) cells were obtained from the American Type Culture Collection and cultured in Iscove’s modified Dulbecco’s medium (Sigma-Aldrich) supplemented with 20% fetal bovine serum (FBS) (Sigma-Aldrich).
(§2) The apoptotic activity of the compounds was determined using the phycoerythrin (PE) annexin V/dead cell apoptosis kit with Sytox green for flow cytometry (Invitrogen, Carlsbad, CA). Cells were grown in 12-well flat-bottom microtiter plates at an initial density 2 × 10^5 cells in 1.5-ml medium per well for 24 h. Following the incubation period, spent medium was replaced with fresh medium containing the desired concentration of the test compound and incubated for another 18 h. After trypsinization, cells were harvested by centrifuging at 250 × g for 4 min, and the cell pellet was suspended in 100 μl of binding buffer supplemented with 1 μl Sytox and 5 μl annexin V, followed by incubation at 37°C for 15 min. Samples were then diluted by adding 400-μl binding buffer, and flow cytometry was performed using a FACScalibur flow cytometer (Becton, Dickinson, Franklin Lakes, NJ), measuring the fluorescence emissions at 530 nm and 575 nm.

J774A.1 cells = details: positive control, 2 mM hydrogen peroxide, 4 h
Protocol: as §1, §2

TIGK cells = details: positive control, 2 mM hydrogen peroxide, 4 h;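 also: flow cytometry of cells stained with PE annexin V plus Sytox green, with untreated or 0.1% DMSO-exposed cells as negative controls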
Protocol: as §1, §2

For `OO` [Medium/H2O2, hydrogen peroxide, reference compound], the “Early apoptosis (%)” value (HL60 cells) was 12.3%, the “Late apoptosis/necrosis (%)” value (HL60 cells) was 31.4% and the “Live cells (%)” value (HL60 cells) was 52.7%. The “Early apoptosis (%)” value (J774A.1 cells) was 1.3%, the “Late apoptosis/necrosis (%)” value (J774A.1 cells) was 34.7% and the “Live cells (%)” value (J774A.1 cells) was 41.9%. The “Early apoptosis (%)” value (TIGK cells) was 4.9%, the “Late apoptosis/necrosis (%)” value (TIGK cells) was 21.9* % and the “Live cells (%)” value (TIGK cells) was 56.6%.
